Source: ChEMBL document CHEMBL1201862, “PubChem BioAssay data set” (2004)
Active and inactive are the calls of the source.

Key:
[1] = molecular target: RAC-gamma serine/threonine-protein kinase (Homo sapiens, UniProt Q9Y243); type: functional
[2] = molecular target: Protein kinase C delta type (Homo sapiens, UniProt Q05655); type: functional
[3] = molecular target: Serine/threonine-protein kinase D2 (Homo sapiens, UniProt Q9BZL6); type: functional;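 further: measured against PRKD2 as one member of a kinome-wide kinase profiling panel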
[4] = molecular target: Death-associated protein kinase 3 (Homo sapiens, UniProt O43293); type: functional;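 further: measured as one member of a kinome-wide profiling panel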
[5] = molecular target: Casein kinase II subunit alpha (Homo sapiens, UniProt P68400); type: functional
[6] = molecular target: Fibroblast growth factor receptor 1 (Homo sapiens, UniProt P11362); type: functional
[7] = molecular target: MAP/microtubule affinity-regulating kinase 3 (Homo sapiens, UniProt P27448); type: functional;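 further: MARK3 affinity measured as one member of a kinome panel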
[8] = molecular target: High affinity nerve growth factor receptor (Homo sapiens, UniProt P04629); type: functional;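 further: NTRK1 tested as one member of a kinome-wide profiling panel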
[9] = molecular target: Mitogen-activated protein kinase 13 (Homo sapiens, UniProt O15264); type: functional
[10] = molecular target: MAP kinase-activated protein kinase 3 (Homo sapiens, UniProt Q16644); type: functional;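 further: value comes from a kinome-wide profiling panel in which MAPKAPK3 is one of the panel members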
[11] = molecular target: Casein kinase I isoform delta (Homo sapiens, UniProt P48730); type: functional;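 further: measured as one member (CSNK1D) of a kinome panel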
[12] = molecular target: Calcium/calmodulin-dependent protein kinase type 1 (Homo sapiens, UniProt Q14012); type: functional
[13] = molecular target: 3-phosphoinositide-dependent protein kinase 1 (Homo sapiens, UniProt O15530); type: functional;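 further: value comes from the Navigating the Kinome panel, PDPK1 member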
[14] = molecular target: BDNF/NT-3 growth factors receptor (Homo sapiens, UniProt Q16620); type: functional;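 further: NTRK2 measured as one member of a broad kinome-wide kinase profiling panel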
[15] = molecular target: cAMP-dependent protein kinase catalytic subunit alpha (Homo sapiens, UniProt P17612); type: functional
[16] = molecular target: Macrophage colony-stimulating factor 1 receptor (Homo sapiens, UniProt P07333); type: functional;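 further: value comes from the Navigating the Kinome screening panel, CSF1R member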
[17] = molecular target: Inhibitor of nuclear factor kappa-B kinase subunit beta (Homo sapiens, UniProt O14920); type: functional
[18] = system: BJ; assay: cells; type: functional, cell-based; settings: Homo sapiens
[19] = protection from phage-mediated lysis, alamar blue read-out – E. coli UTI89, K1F phage, bacterial capsule biogenesis inhibitors (AID 488966); type: functional
[20] = molecular target: T1, Ubiquitin-conjugating enzyme E2 N (Homo sapiens, UniProt P61088); type: functional;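 further: Dose-response confirmation in a TR-FRET assay detecting UBC13-driven polyubiquitin chain formation, inhibition measured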
T1 sequence (P61088 whole entry): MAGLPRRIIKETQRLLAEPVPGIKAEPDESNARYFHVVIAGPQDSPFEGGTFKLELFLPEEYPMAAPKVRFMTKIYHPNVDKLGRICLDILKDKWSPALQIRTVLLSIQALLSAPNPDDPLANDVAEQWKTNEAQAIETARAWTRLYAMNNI

[21] = molecular target: Small ubiquitin-related modifier 1 (Homo sapiens, UniProt P63165); assay: SUMO1 protein interaction blockers, potency – biochemical, fluorescence polarization, uHTS hits, dose response (AID 624382); type: functional; settings: read-out: IC50_Mean
[22] = viability loss in HeLa cells – cytotoxicity control for MgcRacGAP inhibitor project, dose response (AID 624300); type: functional
[23] = molecular target: T2, Rac GTPase-activating protein 1 (Homo sapiens, UniProt Q9H0H5); assay: blockers of MgcRacGAP-driven Rac1 GTP hydrolysis – biochemical, ADP Hunter fluorescence, primary and confirmatory, confirmation (AID 624330); type: functional
T2 sequence (Q9H0H5 whole entry): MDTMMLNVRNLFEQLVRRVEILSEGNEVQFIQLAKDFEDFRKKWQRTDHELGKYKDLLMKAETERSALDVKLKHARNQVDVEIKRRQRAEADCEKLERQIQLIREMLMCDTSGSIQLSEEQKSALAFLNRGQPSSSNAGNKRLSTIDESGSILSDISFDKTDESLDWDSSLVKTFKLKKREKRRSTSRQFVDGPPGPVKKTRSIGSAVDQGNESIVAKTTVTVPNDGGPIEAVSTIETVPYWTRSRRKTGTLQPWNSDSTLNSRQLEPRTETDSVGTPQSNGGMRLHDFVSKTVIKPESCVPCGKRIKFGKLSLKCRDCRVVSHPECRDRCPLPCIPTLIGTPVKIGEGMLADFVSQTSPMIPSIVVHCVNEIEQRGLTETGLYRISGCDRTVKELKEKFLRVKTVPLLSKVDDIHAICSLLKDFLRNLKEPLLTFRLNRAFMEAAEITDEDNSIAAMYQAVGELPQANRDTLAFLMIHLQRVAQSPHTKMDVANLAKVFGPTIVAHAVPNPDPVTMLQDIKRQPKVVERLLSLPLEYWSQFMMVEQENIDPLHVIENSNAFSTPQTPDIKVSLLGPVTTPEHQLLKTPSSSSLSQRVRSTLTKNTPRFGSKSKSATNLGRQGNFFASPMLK

MAP/microtubule affinity-regulating kinase 3, sequence (P27448 whole entry): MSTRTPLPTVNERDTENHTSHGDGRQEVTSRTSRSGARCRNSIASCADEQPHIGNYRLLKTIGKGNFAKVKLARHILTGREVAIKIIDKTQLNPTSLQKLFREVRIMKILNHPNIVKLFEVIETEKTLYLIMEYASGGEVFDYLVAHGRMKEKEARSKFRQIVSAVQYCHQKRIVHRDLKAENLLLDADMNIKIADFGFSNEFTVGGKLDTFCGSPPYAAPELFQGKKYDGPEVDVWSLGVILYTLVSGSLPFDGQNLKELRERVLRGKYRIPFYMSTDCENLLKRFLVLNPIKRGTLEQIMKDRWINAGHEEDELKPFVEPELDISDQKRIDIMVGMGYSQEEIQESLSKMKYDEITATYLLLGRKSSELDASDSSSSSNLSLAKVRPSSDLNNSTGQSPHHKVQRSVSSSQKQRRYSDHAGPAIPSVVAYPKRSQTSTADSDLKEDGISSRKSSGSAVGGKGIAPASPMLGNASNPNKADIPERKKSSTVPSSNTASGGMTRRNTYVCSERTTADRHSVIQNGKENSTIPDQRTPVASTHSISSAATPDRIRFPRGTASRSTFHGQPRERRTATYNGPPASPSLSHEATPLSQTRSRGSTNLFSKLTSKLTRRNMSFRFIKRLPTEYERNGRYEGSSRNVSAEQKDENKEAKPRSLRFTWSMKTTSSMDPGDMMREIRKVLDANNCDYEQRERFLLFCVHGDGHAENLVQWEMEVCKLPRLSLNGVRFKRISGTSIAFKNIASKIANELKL
Protein kinase C delta type, sequence (Q05655 whole entry): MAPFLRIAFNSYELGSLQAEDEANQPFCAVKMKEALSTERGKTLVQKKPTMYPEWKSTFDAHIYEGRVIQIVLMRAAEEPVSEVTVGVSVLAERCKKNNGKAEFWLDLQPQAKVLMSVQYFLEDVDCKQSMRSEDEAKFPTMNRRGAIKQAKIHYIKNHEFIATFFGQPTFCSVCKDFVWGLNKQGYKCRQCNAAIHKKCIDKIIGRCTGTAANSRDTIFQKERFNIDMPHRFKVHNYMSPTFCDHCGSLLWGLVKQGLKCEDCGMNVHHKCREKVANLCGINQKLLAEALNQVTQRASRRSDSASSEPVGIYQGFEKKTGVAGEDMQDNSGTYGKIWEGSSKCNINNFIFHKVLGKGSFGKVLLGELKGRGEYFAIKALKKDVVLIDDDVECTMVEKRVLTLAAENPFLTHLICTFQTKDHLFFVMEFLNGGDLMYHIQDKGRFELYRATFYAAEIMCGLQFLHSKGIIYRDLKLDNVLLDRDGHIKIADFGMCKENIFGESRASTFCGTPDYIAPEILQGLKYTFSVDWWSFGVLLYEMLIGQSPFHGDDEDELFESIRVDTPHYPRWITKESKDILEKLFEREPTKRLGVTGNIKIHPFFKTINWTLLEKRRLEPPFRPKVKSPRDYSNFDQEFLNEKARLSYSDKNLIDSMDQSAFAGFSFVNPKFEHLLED
Calcium/calmodulin-dependent protein kinase type 1, sequence (Q14012 whole entry): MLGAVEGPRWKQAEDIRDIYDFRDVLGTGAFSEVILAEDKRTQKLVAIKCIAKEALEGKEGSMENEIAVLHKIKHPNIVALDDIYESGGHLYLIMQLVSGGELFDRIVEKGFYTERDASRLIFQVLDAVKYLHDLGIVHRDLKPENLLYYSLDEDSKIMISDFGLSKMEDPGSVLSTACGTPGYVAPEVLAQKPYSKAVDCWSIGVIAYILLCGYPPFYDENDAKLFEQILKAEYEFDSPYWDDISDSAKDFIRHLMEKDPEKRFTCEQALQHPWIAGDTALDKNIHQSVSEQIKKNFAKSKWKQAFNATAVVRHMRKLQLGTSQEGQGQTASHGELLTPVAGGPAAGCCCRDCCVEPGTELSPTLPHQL
Casein kinase II subunit alpha, sequence (P68400 whole entry): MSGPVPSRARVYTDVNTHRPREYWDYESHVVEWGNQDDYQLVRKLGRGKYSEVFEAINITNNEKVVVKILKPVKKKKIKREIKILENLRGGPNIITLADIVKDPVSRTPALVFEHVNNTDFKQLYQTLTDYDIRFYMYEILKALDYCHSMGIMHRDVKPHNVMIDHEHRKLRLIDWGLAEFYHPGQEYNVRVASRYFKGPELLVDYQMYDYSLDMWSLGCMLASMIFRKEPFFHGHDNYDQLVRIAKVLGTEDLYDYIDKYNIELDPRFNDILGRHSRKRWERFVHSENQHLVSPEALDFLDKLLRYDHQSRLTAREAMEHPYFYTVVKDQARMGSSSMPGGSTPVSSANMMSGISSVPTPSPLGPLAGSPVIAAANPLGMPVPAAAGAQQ
Inhibitor of nuclear factor kappa-B kinase subunit beta, sequence (O14920 whole entry): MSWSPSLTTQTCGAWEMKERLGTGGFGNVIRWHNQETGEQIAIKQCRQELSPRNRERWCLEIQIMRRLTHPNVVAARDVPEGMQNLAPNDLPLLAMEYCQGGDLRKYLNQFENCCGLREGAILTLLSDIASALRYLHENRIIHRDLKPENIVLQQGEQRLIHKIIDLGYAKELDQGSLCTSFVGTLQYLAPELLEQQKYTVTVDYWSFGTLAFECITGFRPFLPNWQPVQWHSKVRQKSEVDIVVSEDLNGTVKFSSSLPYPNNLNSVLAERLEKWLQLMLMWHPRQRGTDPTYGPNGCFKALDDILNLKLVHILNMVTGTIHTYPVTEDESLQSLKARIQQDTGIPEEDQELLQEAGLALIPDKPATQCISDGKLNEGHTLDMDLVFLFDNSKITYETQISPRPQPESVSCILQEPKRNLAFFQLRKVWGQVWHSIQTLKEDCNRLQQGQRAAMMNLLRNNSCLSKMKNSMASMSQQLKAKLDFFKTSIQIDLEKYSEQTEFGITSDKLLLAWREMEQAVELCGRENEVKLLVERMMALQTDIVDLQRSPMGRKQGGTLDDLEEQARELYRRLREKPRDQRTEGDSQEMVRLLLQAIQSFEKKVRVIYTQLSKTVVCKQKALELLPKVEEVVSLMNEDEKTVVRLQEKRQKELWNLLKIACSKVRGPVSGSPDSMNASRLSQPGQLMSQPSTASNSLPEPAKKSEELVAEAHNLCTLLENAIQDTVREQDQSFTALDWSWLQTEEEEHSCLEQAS
RAC-gamma serine/threonine-protein kinase, sequence (Q9Y243 whole entry): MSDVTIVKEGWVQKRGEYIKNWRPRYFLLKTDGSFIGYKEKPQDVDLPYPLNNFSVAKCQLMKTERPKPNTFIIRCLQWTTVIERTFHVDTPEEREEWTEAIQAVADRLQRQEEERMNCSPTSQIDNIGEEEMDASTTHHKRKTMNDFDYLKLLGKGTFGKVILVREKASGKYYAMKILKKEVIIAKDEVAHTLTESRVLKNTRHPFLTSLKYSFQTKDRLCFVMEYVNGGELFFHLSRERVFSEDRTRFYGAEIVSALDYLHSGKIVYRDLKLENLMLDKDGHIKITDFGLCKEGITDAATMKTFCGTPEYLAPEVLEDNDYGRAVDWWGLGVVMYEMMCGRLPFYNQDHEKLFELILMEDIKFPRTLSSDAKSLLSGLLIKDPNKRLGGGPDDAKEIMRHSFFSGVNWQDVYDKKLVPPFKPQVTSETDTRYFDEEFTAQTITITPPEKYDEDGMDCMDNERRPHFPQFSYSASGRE
Casein kinase I isoform delta, sequence (P48730 whole entry, canonical isoform): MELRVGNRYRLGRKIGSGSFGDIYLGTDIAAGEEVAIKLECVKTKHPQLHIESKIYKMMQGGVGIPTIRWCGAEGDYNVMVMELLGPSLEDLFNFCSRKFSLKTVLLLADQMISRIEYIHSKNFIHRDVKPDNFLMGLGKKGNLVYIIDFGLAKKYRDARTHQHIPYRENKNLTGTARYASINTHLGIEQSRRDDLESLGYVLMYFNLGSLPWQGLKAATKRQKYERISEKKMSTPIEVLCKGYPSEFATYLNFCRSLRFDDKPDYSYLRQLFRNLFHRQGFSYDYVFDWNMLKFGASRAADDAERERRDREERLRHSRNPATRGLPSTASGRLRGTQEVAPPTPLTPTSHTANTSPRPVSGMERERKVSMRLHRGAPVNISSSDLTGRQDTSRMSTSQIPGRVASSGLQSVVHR
BDNF/NT-3 growth factors receptor, sequence (Q16620 whole entry): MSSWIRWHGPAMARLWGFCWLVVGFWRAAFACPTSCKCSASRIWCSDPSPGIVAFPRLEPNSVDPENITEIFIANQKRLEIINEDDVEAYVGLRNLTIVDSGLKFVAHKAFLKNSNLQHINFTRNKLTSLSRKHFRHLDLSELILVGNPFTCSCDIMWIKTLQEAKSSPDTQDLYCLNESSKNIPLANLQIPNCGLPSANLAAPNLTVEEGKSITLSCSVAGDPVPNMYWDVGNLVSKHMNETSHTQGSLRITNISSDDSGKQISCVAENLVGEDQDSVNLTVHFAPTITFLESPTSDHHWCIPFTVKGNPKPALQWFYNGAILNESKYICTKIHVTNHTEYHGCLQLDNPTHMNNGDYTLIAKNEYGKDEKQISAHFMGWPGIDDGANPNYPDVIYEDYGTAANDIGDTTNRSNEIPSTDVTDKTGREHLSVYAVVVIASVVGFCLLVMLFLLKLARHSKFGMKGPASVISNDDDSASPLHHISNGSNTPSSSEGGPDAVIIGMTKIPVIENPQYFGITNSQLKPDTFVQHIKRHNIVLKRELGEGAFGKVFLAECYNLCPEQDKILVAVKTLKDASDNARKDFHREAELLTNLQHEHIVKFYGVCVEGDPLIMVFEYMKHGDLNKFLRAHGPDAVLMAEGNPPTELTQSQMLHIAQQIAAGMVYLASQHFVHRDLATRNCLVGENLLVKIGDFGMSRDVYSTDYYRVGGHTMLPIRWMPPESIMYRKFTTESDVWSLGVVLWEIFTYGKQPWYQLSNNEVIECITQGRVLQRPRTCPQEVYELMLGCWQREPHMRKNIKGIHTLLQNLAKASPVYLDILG
Small ubiquitin-related modifier 1, sequence (P63165 whole entry): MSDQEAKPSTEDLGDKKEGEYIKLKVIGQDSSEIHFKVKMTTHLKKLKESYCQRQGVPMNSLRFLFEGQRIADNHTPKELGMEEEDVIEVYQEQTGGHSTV

CC(=NNC(=N)N)c1cc(NC(=O)NCCCCCCNC(=O)Nc2cc(C(C)=NNC(=N)N)cc(C(C)=NNC(=N)N)c2)cc(C(C)=NNC(=N)N)c1
Ki [1]: 0.398 µM (active)
Ki [2]: 0.316 µM (active)
Ki [3]: 0.631 µM (active)
Ki [4]: 0.158 µM (active)
Ki [5]: > 6.31 µM (inactive)
Ki [6]: > 5.01 µM (inactive)
Ki [7]: 2 µM (active)
Ki [8]: > 2.51 µM (inactive)
Ki [9]: > 7.94 µM (inactive)
Ki [10]: 0.631 µM (active)
Ki [11]: > 7.94 µM (inactive)
Ki [12]: 3.16 µM (active)
Ki [13]: > 3.98 µM (inactive)
Ki [14]: > 5.01 µM (inactive)
Ki [15]: > 7.94 µM (inactive)
Ki [16]: > 2.51 µM (inactive)
Ki [17]: > 3.16 µM (inactive)

Cc1cc(N)c2cc(NC(=O)/C=C/c3ccccc3Cl)ccc2n1
EC50 [18]: 4.79 µM (inconclusive)
IC50 [19]: > 75 µM (active)
IC50 [20]: 3.5 µM (active)
IC50 [21]: > 66.6 µM (inactive)
CC50 [22]: 5.35 µM (active)
IC50 [23]: 23.7 µM (active)
